Common to all, as to assay type: cell-based
Test [1] relates to strain mh295, microorganism classified into Labyrinthulae. As to the kind of experiment: DHA percentage of fatty acid composition (gas chromatography) after culture with desaturase inhibitor, strain mh295. As to conditions: GY medium, 28° C., 4 days, inhibitor added to medium (curcumin 1μg/ml), control 19.19. The procedure: (§1) Thirty three strains of microorganisms which were isolated from mangrove woods or sea water around Ishigaki City, Okinawa Prefecture and classified into Labyrinthulae, were cultured in a GY medium (prepared according to the method as described in “NIPPON SUISAN GAKKAISHI” vol. 68, no. 5, 674-678 (2002); GY medium containing 3% glucose and 1% yeast extract was prepared with 50% artificial sea water and adjusted to pH 6.0; this was used as a liquid medium or a plate medium with 1.5% agar) at 28° C. for 4 days, to which was added 1μg/ml of curcumin (Nacalai Tesque, Inc.) as an inhibitor for a Δ6-fatty acid desaturase. After termination of the culture, the microorganism was collected by centrifugal separation (1500×g, 10 min), and the cells were destroyed by ultra-sonication and extracted by chloroform/methanol (2:1; by v/v) to yield the total lipid. The resulting total lipid was subjected to methanolysis with 10% hydrogen chloride/methanol solution, and the fatty acid composition was analyzed by gas chromatography (Shimadzu Corp.; Model GC-2014). In a control, the same operation as mentioned above was made with no addition of curcumin. […]

For test [2], the system named is strain mh313, microorganism classified into Labyrinthulae. As to the kind of experiment: DHA percentage of fatty acid composition (gas chromatography) after culture with desaturase inhibitor, strain mh313. The note with it: GY medium, 28° C., 4 days, inhibitor added to medium (curcumin 1μg/ml), control 26.03. The procedure: as §1
Test [3] has as its system strain mh314, microorganism classified into Labyrinthulae. The test is described as follows: DHA percentage of fatty acid composition (gas chromatography) after culture with desaturase inhibitor, strain mh314. As to conditions: GY medium, 28° C., 4 days, inhibitor added to medium (curcumin 1μg/ml), control 13.27. The procedure: as §1
Test [4] concerns strain mh375, microorganism classified into Labyrinthulae. The test is described as follows: DHA percentage of fatty acid composition (gas chromatography) after culture with desaturase inhibitor, strain mh375. The note with it: GY medium, 28° C., 4 days, inhibitor added to medium (curcumin 1μg/ml), control 26.02. The procedure: as §1
In test [5] the test system is strain mh295, microorganism classified into Labyrinthulae. The test is described as follows: Determination of DHA amount with C19:0 internal standard, strain mh295. As to conditions: from ratio of peak area to C19:0 internal standard, control 0.45. The procedure: (§2) Thirty three strains of microorganisms which were isolated from mangrove woods or sea water around Ishigaki City, Okinawa Prefecture and classified into Labyrinthulae, were cultured in a GY medium (prepared according to the method as described in “NIPPON SUISAN GAKKAISHI” vol. 68, no. 5, 674-678 (2002); GY medium containing 3% glucose and 1% yeast extract was prepared with 50% artificial sea water and adjusted to pH 6.0; this was used as a liquid medium or a plate medium with 1.5% agar) at 28° C. for 4 days, to which was added 1μg/ml of curcumin (Nacalai Tesque, Inc.) as an inhibitor for a Δ6-fatty acid desaturase. […] The resulting total lipid was subjected to methanolysis with 10% hydrogen chloride/methanol solution, and the fatty acid composition was analyzed by gas chromatography (Shimadzu Corp.; Model GC-2014). […]
(§3) To the total lipid (about 40 mg) which was extracted from the cells cultured in Examples 1 and 2 was added 0.5mg of nonadecanoic acid (C19:0) as an internal standard substance; then, the fatty acid composition after methanolysis with 10% hydrogen chloride/methanol solution was analyzed by gas chromatography (Shimadzu Corp.; Model GC-2014). From the ratio of the peak area of each fatty acid including DHA to that of C19:0, the amount of each fatty acid was determined.

The test system of test [6] is strain mh313, microorganism classified into Labyrinthulae. As to the kind of experiment: Determination of DHA amount with C19:0 internal standard, strain mh313. The note with it: from ratio of peak area to C19:0 internal standard, control 0.56. The procedure:
as §2, §3

For test [7], the system named is strain mh314, microorganism classified into Labyrinthulae. As to the kind of experiment: Determination of DHA amount with C19:0 internal standard, strain mh314. The note with it: from ratio of peak area to C19:0 internal standard, control 0.21. The procedure: as §2, §3
The test system of test [8] is strain mh375, microorganism classified into Labyrinthulae. As to the kind of experiment: Determination of DHA amount with C19:0 internal standard, strain mh375. As to conditions: from ratio of peak area to C19:0 internal standard, control 0.39. The procedure: as §2, §3
Test [9] deals with microorganism classified into Labyrinthulae. As to the kind of experiment: Content of docosahexaenoic acid in fats and oils produced versus control (summary statements). The note with it: culture with inhibitor versus no inhibitor. The procedure: as §2, §3

With `COc1cc(/C=C/C(=O)CC(=O)/C=C/c2ccc(O)c(OC)c2)ccc1O` [Example 1, curcumin], the “percentage of the peak area of docosahexaenoic acid” value was 22.32% in test [1], 31.05% in [2], 27.23% in [3] and 33.77% in test [4]. Also, the “amount of DHA” value in test [5] was 0.67 g/L; in [6], 0.71 g/L; in [7] it was 0.66 g/L; in test [8], 1 g/L. In addition, in test [9], the “content of docosahexaenoic acid in the fats and oils produced, in comparison with that of the control” value is listed as “significantly increased”.

Consider `c1cc2c(cc1[C@H]1OC[C@H]3[C@@H]1CO[C@@H]3c1ccc3c(c1)OCO3)OCO2` [Example 2, sesamin], for which the “percentage of the peak area of docosahexaenoic acid” value in test [1] is 21.47%; in test [2], 42.32%; in [3], 22.31%; in test [4], 29.96%. Moreover, the “amount of DHA” value in test [5] stood at 0.98 g/L; in test [6] it was 1.45 g/L; in test [7] it was 0.82 g/L; in [8], 0.64 g/L. In addition, in test [9], the “content of docosahexaenoic acid in the fats and oils produced, in comparison with that of the control” value was “significantly increased”.

The values above are taken from patent US20130096332A1, “METHOD FOR INCREASING THE CONTENT OF DOCOSAHEXAENOIC ACID IN FAT-CONTAINING MATERIALS OR IN FATS AND OILS” (NIPPON SUISAN KAISHA, LTD., priority 2007, published 2013).
